Reference: ChEMBL document CHEMBL5042529, “One-Pot Enzymatic Synthesis and Biological Evaluation of Ganglioside GM3 Derivatives as Potential Cancer Immunotherapeutics” (J Med Chem, 2022)
The source made the active and inactive calls. The calls are words filed in the database; no cut-off is given here.

Assays:
[1] = Cytotoxicity against human A-431 cells measured after 24 hrs by MTT assay; format: toxicity, cell-based
[2] = Cytotoxicity against human HeLa cells measured after 24 hrs by MTT assay; format: toxicity, cell-based
[3] = Cytotoxicity against mouse Neuro2a cells measured after 24 hrs by MTT assay; format: toxicity, cell-based, N2a
[4] = Cytotoxicity against rat PC-12 cells measured after 24 hrs by MTT assay; format: toxicity, cell-based
[5] = Cytotoxicity against CHO cells measured after 24 hrs by MTT assay; format: toxicity, cell-based, Cricetulus griseus; conditions: Chinese hamster
[6] = system: Mus musculus; test: Effect on IL-2 expression in C57BL/6 mouse transfected with mouse B16-Luc cells assessed as serum IL-2 level at 5 mg/kg, ip qd treated for 7 days by ELISA; format: functional, organism-based; conditions: time 7.0 day
[7] = system: Mus musculus; test: Effect on IL-2 expression in C57BL/6 mouse transfected with mouse B16-Luc cells assessed as serum […] level at 5 mg/kg, ip qd treated for 7 days by ELISA; format: functional, organism-based; conditions: time 7.0 day
[8] = system: Mus musculus; test: Effect on IL-2 expression in C57BL/6 mouse transfected with mouse B16-Luc cells assessed as serum IgG level at 5 mg/kg, ip qd treated for 7 days by ELISA; format: functional, organism-based; conditions: time 7.0 day
[9] = system: A-431; test: Inhibition of cell invasion in human A-431 cells assessed as inhibition rate at 50 uM incubated for 24 hrs by crystal violet staining based transwell assay; format: functional
[10] = system: A-431; test: Antimigratory activity in human A-431 cells assessed as inhibition of scratch at 50 uM measured after 24 hrs by Wound healing assay; format: functional

Structure (SMILES)	IC50 at 24 h [1] [µM]	IC50 at 24 h [2] [µM]	IC50 at 24 h [3] [µM]	IC50 at 24 h [4] [µM]	IC50 at 24 h [5] [µM]	Activity [6]	Activity [7]	Activity [8]	inhibition at 50 µM [9] [%]	Activity [10]
CCCCCCCCCCCCC/C=C/[C@@H](O)[C@H](CO[C@@H]1O[C@H](CO)[C@@H](O[C@@H]2O[C@H](CO)[C@H](O)[C@H](O[C@]3(C(=O)O)C[C@H](O)[C@@H](NC(=O)c4cccc([N+](=O)[O-])c4)[C@H]([C@H](O)[C@H](O)CO)O3)[C@H]2O)[C@H](O)[C@H]1O)NC(=O)CCCCCCCCCCCCCCCCC	> 200	> 200	> 200	> 200	> 200					
CCCCCCCCCCCCC/C=C/[C@@H](O)[C@H](CO[C@@H]1O[C@H](CO)[C@@H](O[C@@H]2O[C@H](CO)[C@H](O)[C@H](O[C@]3(C(=O)O)C[C@H](O)[C@@H](NC(=O)c4ccc(F)cc4)[C@H]([C@H](O)[C@H](O)CO)O3)[C@H]2O)[C@H](O)[C@H]1O)NC(=O)CCCCCCCCCCCCCCCCC	> 200	> 200	> 200	> 200	> 200					
CCCCCCCCCCCCC/C=C/[C@@H](O)[C@H](CO[C@@H]1O[C@H](CO)[C@@H](O[C@@H]2O[C@H](CO)[C@H](O)[C@H](O[C@]3(C(=O)O)C[C@H](O)[C@@H](NC(=O)c4ccc(I)cc4)[C@H]([C@H](O)[C@H](O)CO)O3)[C@H]2O)[C@H](O)[C@H]1O)NC(=O)CCCCCCCCCCCCCCCCC	> 200	> 200	> 200	> 200	> 200					
CCCCCCCCCCCCC/C=C/[C@@H](O)[C@H](CO[C@@H]1O[C@H](CO)[C@@H](O[C@@H]2O[C@H](CO)[C@H](O)[C@H](O[C@]3(C(=O)O)C[C@H](O)[C@@H](NC(C)=O)[C@H]([C@H](O)[C@H](O)CO)O3)[C@H]2O)[C@H](O)[C@H]1O)NC(=O)CCCCCCCCCCCCCCCCC						inactive	inactive	inactive		
CCCCCCCCCCCCC/C=C/[C@@H](O)[C@H](CO[C@@H]1O[C@H](CO)[C@@H](O[C@@H]2O[C@H](CO)[C@H](O)[C@H](O[C@]3(C(=O)O)C[C@H](O)[C@@H](NC(=O)Cc4ccc(C)cc4)[C@H]([C@H](O)[C@H](O)CO)O3)[C@H]2O)[C@H](O)[C@H]1O)NC(=O)CCCCCCCCCCCCCCCCC	> 200	> 200	> 200	> 200	> 200					
CCCCCCCCCCCCC/C=C/[C@@H](O)[C@H](CO[C@@H]1O[C@H](CO)[C@@H](O[C@@H]2O[C@H](CO)[C@H](O)[C@H](O[C@]3(C(=O)O)C[C@H](O)[C@@H](NC(=O)c4ccccc4)[C@H]([C@H](O)[C@H](O)CO)O3)[C@H]2O)[C@H](O)[C@H]1O)NC(=O)CCCCCCCCCCCCCCCCC	> 200	> 200	> 200	> 200	> 200					
CCCCCCCCCCCCC/C=C/[C@@H](O)[C@H](CO[C@@H]1O[C@H](CO)[C@@H](O[C@@H]2O[C@H](CO)[C@H](O)[C@H](O[C@]3(C(=O)O)C[C@H](O)[C@@H](NC(=O)c4cc(F)cc(F)c4)[C@H]([C@H](O)[C@H](O)CO)O3)[C@H]2O)[C@H](O)[C@H]1O)NC(=O)CCCCCCCCCCCCCCCCC	> 200	> 200	> 200	> 200	> 200					
CCCCCCCCCCCCC/C=C/[C@@H](O)[C@H](CO[C@@H]1O[C@H](CO)[C@@H](O[C@@H]2O[C@H](CO)[C@H](O)[C@H](O[C@]3(C(=O)O)C[C@H](O)[C@@H](NC(=O)c4cc(C)cc(C)c4)[C@H]([C@H](O)[C@H](O)CO)O3)[C@H]2O)[C@H](O)[C@H]1O)NC(=O)CCCCCCCCCCCCCCCCC	> 200	> 200	> 200	> 200	> 200					
CCCCCCCCCCCCC/C=C/[C@@H](O)[C@H](CO[C@@H]1O[C@H](CO)[C@@H](O[C@@H]2O[C@H](CO)[C@H](O)[C@H](O[C@]3(C(=O)O)C[C@H](O)[C@@H](NC(=O)c4cccc(F)c4)[C@H]([C@H](O)[C@H](O)CO)O3)[C@H]2O)[C@H](O)[C@H]1O)NC(=O)CCCCCCCCCCCCCCCCC	> 200	> 200	> 200	> 200	> 200				27.8	Active
CCCCCCCCCCCCC/C=C/[C@@H](O)[C@H](CO[C@@H]1O[C@H](CO)[C@@H](O[C@@H]2O[C@H](CO)[C@H](O)[C@H](O[C@]3(C(=O)O)C[C@H](O)[C@@H](NC(=O)c4ccc(C=O)cc4)[C@H]([C@H](O)[C@H](O)CO)O3)[C@H]2O)[C@H](O)[C@H]1O)NC(=O)CCCCCCCCCCCCCCCCC	> 200	> 200	> 200	> 200	> 200					Active
CCCCCCCCCCCCC/C=C/[C@@H](O)[C@H](CO[C@@H]1O[C@H](CO)[C@@H](O[C@@H]2O[C@H](CO)[C@H](O)[C@H](O[C@]3(C(=O)O)C[C@H](O)[C@@H](NC(=O)c4cccc(Br)c4)[C@H]([C@H](O)[C@H](O)CO)O3)[C@H]2O)[C@H](O)[C@H]1O)NC(=O)CCCCCCCCCCCCCCCCC	> 200	> 200	> 200	> 200	> 200					
CCCCCCCCCCCCC/C=C/[C@@H](O)[C@H](CO[C@@H]1O[C@H](CO)[C@@H](O[C@@H]2O[C@H](CO)[C@H](O)[C@H](O[C@]3(C(=O)O)C[C@H](O)[C@@H](NC(=O)c4ccncc4)[C@H]([C@H](O)[C@H](O)CO)O3)[C@H]2O)[C@H](O)[C@H]1O)NC(=O)CCCCCCCCCCCCCCCCC	> 200	> 200	> 200	> 200	> 200				26.2	Active
CCCCCCCCCCCCC/C=C/[C@@H](O)[C@H](CO[C@@H]1O[C@H](CO)[C@@H](O[C@@H]2O[C@H](CO)[C@H](O)[C@H](O[C@]3(C(=O)O)C[C@H](O)[C@@H](NC(=O)CC)[C@H]([C@H](O)[C@H](O)CO)O3)[C@H]2O)[C@H](O)[C@H]1O)NC(=O)CCCCCCCCCCCCCCCCC	> 200	> 200	> 200	> 200	> 200					
CCCCCCCCCCCCC/C=C/[C@@H](O)[C@H](CO[C@@H]1O[C@H](CO)[C@@H](O[C@@H]2O[C@H](CO)[C@H](O)[C@H](O[C@]3(C(=O)O)C[C@H](O)[C@@H](NC(C)=O)[C@H]([C@H](O)[C@H](O)CO)O3)[C@H]2O)[C@H](O)[C@H]1O)NC(=O)CCCCCCCCCC	> 200	> 200	> 200	> 200	> 200					
